Patent publication US10933051B2, “Carbapenem compounds and compositions for the treatment of bacterial infections” (FOB Synthesis, Inc., priority 2017, dated 2021)

Assays:
Assay type in all cases: cell-based
Set-up in all cases: unit not given here
[1] = tested on: A. baumannii FSAb-029; experiment: Antimicrobial Susceptibility Test (CLSI), Test Example 2; conditions: Table 4; strain produces OXA-2, IMP-1
Description: (§1) Antimicrobial Susceptibility Test was performed by the CLSI (Clinical and Laboratory Standards Institute) methods. The agar dilution method for determining antimicrobial susceptibility was carried out using Mueller Hinton-II agar and the amount of inoculation was 10^4CFU/spot. Broth dilution tests were performed using the Mueller Hinton-II broth. All assays were run with the indicated control strains, available from the ATCC (American Type Culture Collection, Rockville, Md.).

[2] = tested on: A. baumannii FSAb-039; experiment: as above; conditions: Table 4; strain produces OXA-51
Description: as §1

[3] = tested on: A. baumannii FSAb-056; experiment: as above; conditions: Table 4; strain produces OXA-23, OXA-51
Description: as §1

[4] = tested on: A. baumannii FSAb-065; experiment: as above; conditions: Table 4; strain produces OXA-2, VIM-2
Description: as §1

[5] = tested on: E. coli FSEco-054; experiment: as above; conditions: Table 4; strain produces ESBL
Description: as §1

[6] = tested on: K. pneumoniae ATCC BAA-1904; experiment: as above; conditions: Table 4; strain produces KPC-3
Description: as §1

[7] = tested on: P. aeruginosa FSPa-121; experiment: as above; conditions: Table 4; strain produces OXA-17
Description: as §1

[8] = tested on: A. baumannii FSAb-029; experiment: Antimicrobial Susceptibility Test (CLSI), Test Example 3; conditions: Table 6; strain produces OXA-2, IMP-1
Description: as §1

[9] = tested on: A. baumannii FSAb-039; experiment: as above; conditions: Table 6; strain produces OXA-51
Description: as §1

[10] = tested on: A. baumannii FSAb-056; experiment: as above; conditions: Table 6; strain produces OXA-23, 51
Description: as §1

[11] = tested on: A. baumannii FSAb-141; experiment: as above; conditions: Table 6; strain produces PER-1, OXA-23, 51, 66
Description: as §1

[12] = tested on: E. coli FSEco-054; experiment: as above; conditions: Table 6; strain produces ESBL
Description: as §1

[13] = tested on: K. pneumoniae BAA-1904; experiment: as above; conditions: Table 6; strain produces KPC-3
Description: as §1

[14] = tested on: P. aeruginosa FSPa-102; experiment: as above; conditions: Table 6; strain produces IMP-1
Description: as §1

[15] = tested on: P. aeruginosa FSPa-141; experiment: as above; conditions: Table 6; strain produces VIM-2
Description: as §1

C[C@@H](O)[C@H]1C(=O)N2C(C(=O)O)=C(CN3C[C@@H](NC(=O)c4ccc(O)c(O)c4Cl)C[C@H]3C(N)=O)[C@H](C)[C@H]12 [Compound 32]
antimicrobial susceptibility, A. baumannii FSAb-029 [1]: 2 | antimicrobial susceptibility, A. baumannii FSAb-039 [2]: >32 | antimicrobial susceptibility, A. baumannii FSAb-056 [3]: 16 | antimicrobial susceptibility, A. baumannii FSAb-065 [4]: 1 | antimicrobial susceptibility, E. coil FSEco-054 [5]: 4 | antimicrobial susceptibility, K. pneumoniae BAA-1904 [6]: >32 | antimicrobial susceptibility, P. aeruginosa FSPa-121 [7]: 1

C[C@@H](O)[C@H]1C(=O)N2C(C(=O)O)=C(CN3C[C@@H](NC(=O)c4ccc(O)c(O)c4Cl)C[C@@H]3C(N)=O)[C@H](C)[C@H]12 [Compound 33]
antimicrobial susceptibility, A. baumannii FSAb-029 [1]: 4 | antimicrobial susceptibility, A. baumannii FSAb-039 [2]: 32 | antimicrobial susceptibility, A. baumannii FSAb-056 [3]: 8 | antimicrobial susceptibility, A. baumannii FSAb-065 [4]: 1 | antimicrobial susceptibility, E. coil FSEco-054 [5]: 4 | antimicrobial susceptibility, K. pneumoniae BAA-1904 [6]: >32 | antimicrobial susceptibility, P. aeruginosa FSPa-121 [7]: 2

C[C@@H](O)[C@H]1C(=O)N2C(C(=O)O)=C(CN3CCCC3CNC(=O)c3ccc(O)c(O)c3Cl)[C@H](C)[C@H]12 (some centres unmarked) [Compound 34]
antimicrobial susceptibility, A. baumannii FSAb-029 [1]: 2 | antimicrobial susceptibility, A. baumannii FSAb-039 [2]: 8 | antimicrobial susceptibility, A. baumannii FSAb-056 [3]: 8 | antimicrobial susceptibility, A. baumannii FSAb-065 [4]: 8 | antimicrobial susceptibility, E. coil FSEco-054 [5]: 2 | antimicrobial susceptibility, K. pneumoniae BAA-1904 [6]: >32 | antimicrobial susceptibility, P. aeruginosa FSPa-121 [7]: 8

C[C@@H](O)[C@H]1C(=O)N2C(C(=O)O)=C(CN3CCCC3CNC(=O)c3ccc(O)c(O)c3Cl)[C@H](C)[C@H]12 (some centres unmarked) [Compound 35]
antimicrobial susceptibility, A. baumannii FSAb-029 [1]: 4 | antimicrobial susceptibility, A. baumannii FSAb-039 [2]: 8 | antimicrobial susceptibility, A. baumannii FSAb-056 [3]: 4 | antimicrobial susceptibility, A. baumannii FSAb-065 [4]: 2 | antimicrobial susceptibility, E. coil FSEco-054 [5]: 2 | antimicrobial susceptibility, K. pneumoniae BAA-1904 [6]: >32 | antimicrobial susceptibility, P. aeruginosa FSPa-121 [7]: 4

C[C@@H](O)[C@H]1C(=O)N2C(C(=O)O)=C(CN3CCC(C(=O)NCc4ccc(O)c(O)c4Cl)C3)[C@H](C)[C@H]12 (some centres unmarked) [Compound 37]
antimicrobial susceptibility, A. baumannii FSAb-029 [1]: 8 | antimicrobial susceptibility, A. baumannii FSAb-039 [2]: 32 | antimicrobial susceptibility, A. baumannii FSAb-056 [3]: 16 | antimicrobial susceptibility, A. baumannii FSAb-065 [4]: 4 | antimicrobial susceptibility, E. coil FSEco-054 [5]: 8 | antimicrobial susceptibility, K. pneumoniae BAA-1904 [6]: >32 | antimicrobial susceptibility, P. aeruginosa FSPa-121 [7]: 8

C[C@@H](O)[C@H]1C(=O)N2C(C(=O)O)=C(CN3CC(NC(=O)c4ccc(O)c(O)c4Cl)C3)[C@H](C)[C@H]12 [Compound 38]
antimicrobial susceptibility, A. baumannii FSAb-029 [1]: 0.5 | antimicrobial susceptibility, A. baumannii FSAb-039 [2]: 4 | antimicrobial susceptibility, A. baumannii FSAb-056 [3]: 4 | antimicrobial susceptibility, A. baumannii FSAb-065 [4]: 0.25 | antimicrobial susceptibility, E. coil FSEco-054 [5]: 2 | antimicrobial susceptibility, K. pneumoniae BAA-1904 [6]: 16 | antimicrobial susceptibility, P. aeruginosa FSPa-121 [7]: 4

C[C@@H](O)[C@H]1C(=O)N2C(C(=O)O)=C(CN3CC(C(=O)NCc4ccc(O)c(O)c4Cl)C3)[C@H](C)[C@H]12 [Compound 39]
antimicrobial susceptibility, A. baumannii FSAb-029 [1]: 4 | antimicrobial susceptibility, A. baumannii FSAb-039 [2]: 8 | antimicrobial susceptibility, A. baumannii FSAb-056 [3]: 8 | antimicrobial susceptibility, A. baumannii FSAb-065 [4]: 1 | antimicrobial susceptibility, E. coil FSEco-054 [5]: 2 | antimicrobial susceptibility, K. pneumoniae BAA-1904 [6]: 8 | antimicrobial susceptibility, P. aeruginosa FSPa-121 [7]: 16

C[C@@H](O)[C@H]1C(=O)N2C(C(=O)[O-])=C(C[N+](C)(C)CCNC(=O)c3ccc(O)c(O)c3Cl)[C@H](C)[C@H]12 [Compound 40]
antimicrobial susceptibility, A. baumannii FSAb-029 [1]: 8 | antimicrobial susceptibility, A. baumannii FSAb-039 [2]: 16 | antimicrobial susceptibility, A. baumannii FSAb-056 [3]: 8 | antimicrobial susceptibility, A. baumannii FSAb-065 [4]: 4 | antimicrobial susceptibility, E. coil FSEco-054 [5]: 4 | antimicrobial susceptibility, K. pneumoniae BAA-1904 [6]: 16 | antimicrobial susceptibility, P. aeruginosa FSPa-121 [7]: 4

C[C@@H](O)[C@H]1C(=O)N2C(C(=O)O)=C(CN(CCNC(=O)c3ccc(O)c(O)c3F)CCNC(=O)c3ccc(O)c(O)c3F)[C@H](C)[C@H]12 [Compound 101]
antimicrobial susceptibility, Ab FSAb-029 [8]: 0.25 | antimicrobial susceptibility, Ab FSAb-039 [9]: 2 | antimicrobial susceptibility, Ab FSAb-056 [10]: 4 | antimicrobial susceptibility, Ab FSAb-141 [11]: 0.5 | antimicrobial susceptibility, Ec FSEco-054 [12]: 2 | antimicrobial susceptibility, Kp BAA-1904 [13]: >32 | antimicrobial susceptibility, Pa FSPa-102 [14]: 1 | antimicrobial susceptibility, Pa FSPa-141 [15]: 1

C[C@@H](O)[C@H]1C(=O)N2C(C(=O)O)=C(CN(CCCNC(=O)c3ccc(O)c(O)c3F)CCNC(=O)c3ccc(O)c(O)c3F)[C@H](C)[C@H]12 [Compound 102]
antimicrobial susceptibility, Ab FSAb-029 [8]: 0.25 | antimicrobial susceptibility, Ab FSAb-039 [9]: 1 | antimicrobial susceptibility, Ab FSAb-056 [10]: 4 | antimicrobial susceptibility, Ab FSAb-141 [11]: 0.5 | antimicrobial susceptibility, Ec FSEco-054 [12]: 1 | antimicrobial susceptibility, Kp BAA-1904 [13]: >32 | antimicrobial susceptibility, Pa FSPa-102 [14]: 1 | antimicrobial susceptibility, Pa FSPa-141 [15]: 2

C[C@@H](O)[C@H]1C(=O)N2C(C(=O)O)=C(CN(CCCNC(=O)c3ccc(O)c(O)c3F)CCCNC(=O)c3ccc(O)c(O)c3F)[C@H](C)[C@H]12 [Compound 103]
antimicrobial susceptibility, Ab FSAb-029 [8]: 0.25 | antimicrobial susceptibility, Ab FSAb-039 [9]: 1 | antimicrobial susceptibility, Ab FSAb-056 [10]: 4 | antimicrobial susceptibility, Ab FSAb-141 [11]: 1 | antimicrobial susceptibility, Ec FSEco-054 [12]: 1 | antimicrobial susceptibility, Kp BAA-1904 [13]: >32 | antimicrobial susceptibility, Pa FSPa-102 [14]: 2 | antimicrobial susceptibility, Pa FSPa-141 [15]: 8

C[C@@H](O)[C@H]1C(=O)N2C(C(=O)O)=C(CN(CCCCNC(=O)c3ccc(O)c(O)c3F)CCCNC(=O)c3ccc(O)c(O)c3F)[C@H](C)[C@H]12 [Compound 104]
antimicrobial susceptibility, Ab FSAb-029 [8]: 0.5 | antimicrobial susceptibility, Ab FSAb-039 [9]: 2 | antimicrobial susceptibility, Ab FSAb-056 [10]: 4 | antimicrobial susceptibility, Ab FSAb-141 [11]: 1 | antimicrobial susceptibility, Ec FSEco-054 [12]: 1 | antimicrobial susceptibility, Kp BAA-1904 [13]: >32 | antimicrobial susceptibility, Pa FSPa-102 [14]: 2 | antimicrobial susceptibility, Pa FSPa-141 [15]: 4

C[C@@H](O)[C@H]1C(=O)N2C(C(=O)O)=C(CN(CCNC(=O)c3ccc(O)c(O)c3Cl)CCNC(=O)c3ccc(O)c(O)c3Cl)[C@H](C)[C@H]12 [Compound 105]
antimicrobial susceptibility, Ab FSAb-029 [8]: 0.5 | antimicrobial susceptibility, Ab FSAb-039 [9]: 2 | antimicrobial susceptibility, Ab FSAb-056 [10]: 2 | antimicrobial susceptibility, Ab FSAb-141 [11]: 0.5 | antimicrobial susceptibility, Ec FSEco-054 [12]: 1 | antimicrobial susceptibility, Kp BAA-1904 [13]: 16 | antimicrobial susceptibility, Pa FSPa-102 [14]: 1 | antimicrobial susceptibility, Pa FSPa-141 [15]: 0.5

C[C@@H](O)[C@H]1C(=O)N2C(C(=O)O)=C(CN(CCCNC(=O)c3ccc(O)c(O)c3Cl)CCNC(=O)c3ccc(O)c(O)c3Cl)[C@H](C)[C@H]12 [Compound 106]
antimicrobial susceptibility, Ab FSAb-029 [8]: 0.25 | antimicrobial susceptibility, Ab FSAb-039 [9]: 1 | antimicrobial susceptibility, Ab FSAb-056 [10]: 2 | antimicrobial susceptibility, Ab FSAb-141 [11]: 0.5 | antimicrobial susceptibility, Ec FSEco-054 [12]: 1 | antimicrobial susceptibility, Kp BAA-1904 [13]: >32 | antimicrobial susceptibility, Pa FSPa-102 [14]: 1 | antimicrobial susceptibility, Pa FSPa-141 [15]: 1

C[C@@H](O)[C@H]1C(=O)N2C(C(=O)O)=C(CN(CCCNC(=O)c3ccc(O)c(O)c3Cl)CCCNC(=O)c3ccc(O)c(O)c3Cl)[C@H](C)[C@H]12 [Compound 107]
antimicrobial susceptibility, Ab FSAb-029 [8]: 0.25 | antimicrobial susceptibility, Ab FSAb-039 [9]: 1 | antimicrobial susceptibility, Ab FSAb-056 [10]: 2 | antimicrobial susceptibility, Ab FSAb-141 [11]: 0.5 | antimicrobial susceptibility, Ec FSEco-054 [12]: 0.5 | antimicrobial susceptibility, Kp BAA-1904 [13]: >32 | antimicrobial susceptibility, Pa FSPa-102 [14]: 1 | antimicrobial susceptibility, Pa FSPa-141 [15]: 1

C[C@@H](O)[C@H]1C(=O)N2C(C(=O)O)=C(CN(CCCCNC(=O)c3ccc(O)c(O)c3Cl)CCCNC(=O)c3ccc(O)c(O)c3Cl)[C@H](C)[C@H]12 [Compound 108]
antimicrobial susceptibility, Ab FSAb-029 [8]: 1 | antimicrobial susceptibility, Ab FSAb-039 [9]: 2 | antimicrobial susceptibility, Ab FSAb-056 [10]: 4 | antimicrobial susceptibility, Ab FSAb-141 [11]: 1 | antimicrobial susceptibility, Ec FSEco-054 [12]: 1 | antimicrobial susceptibility, Kp BAA-1904 [13]: >32 | antimicrobial susceptibility, Pa FSPa-102 [14]: 2 | antimicrobial susceptibility, Pa FSPa-141 [15]: 2

C[C@@H](O)[C@H]1C(=O)N2C(C(=O)O)=C(CN(CCCNC(=O)c3ccc(O)c(O)c3)CCNC(=O)c3ccc(O)c(O)c3)[C@H](C)[C@H]12 [Compound 109]
antimicrobial susceptibility, Ab FSAb-029 [8]: 1 | antimicrobial susceptibility, Ab FSAb-039 [9]: 2 | antimicrobial susceptibility, Ab FSAb-056 [10]: 4 | antimicrobial susceptibility, Ab FSAb-141 [11]: 2 | antimicrobial susceptibility, Ec FSEco-054 [12]: 2 | antimicrobial susceptibility, Kp BAA-1904 [13]: >32 | antimicrobial susceptibility, Pa FSPa-102 [14]: 4 | antimicrobial susceptibility, Pa FSPa-141 [15]: 4
